Measured values from patent publication US4670433A, “Oxadiazolyl imidazobenzodiazepine derivatives pharmaceutical compositions thereof, and method of treating therewith” (A/S Ferrosan, priority 1985, dated 1987).

What was measured:
benzodiazepine receptors [1] = assay: displacement of 3H-Ro 15-1788 from benzodiazepine receptors in vitro (rat cerebral cortical membrane homogenate); details: 50% displacement of specific binding of 3H-Ro 15-1788, 30° C.
Protocol: (§1) The pharmaceutical potency of the compounds of the present invention is evidenced by determining their capability for displacing radioactively-labelled flunitrazepam and the imidazobenzodiazepine ^3 H-Ro 15-1788 from such benzodiazepine receptors.
(§2) The displacement activity of the compounds of the invention has been determined by determining their IC50 and ED50 values. The IC50 value represents the concentration (nM, 30° C.) which causes a displacement of 50% of the specific binding of ^3 H-Ro 15-1788 in samples comprising a total volume of 1 ml.
The displacement test is performed as follows:
750 μl of rat cerebral cortical membrane homogenate was incubated with 100 μl of 5 nM ^3 H-Ro 15-1788 in water at 30° C. Then 100 μl of a solution of the test compound and 50 μl of Krebs buffer was added. After incubation the binding reaction was terminated by filtration through Whatman GF/B glass fibre filters followed by 2×5 ml wash with ice-cold buffer and the radioactivity was measured by scintillation counting. The IC50 was determined by including at least four concentrations of the test compound and log/probit analysis of the resulting data.

benzodiazepine receptors [2] = assay: in vivo displacement of 3H-flunitrazepam from benzodiazepine receptors in living mouse brain; details: dose reducing specific 3H-flunitrazepam binding to 50% of control; mice, usually subcutaneously, 15 min before 3H-flunitrazepam i.v., killed after a further 20 min, forebrain membranes
Protocol: as §1, §2
The ED50 value represents the dose (mg/kg) of a test substance which causes the specific binding of flunitrazepam to benzodiazepine receptors in a living brain to be reduced to 50% of the control value.
Such an in vivo test is carried out as follows:
Groups of mice are injected with the test substance at different doses and usually subcutaneously. Fifteen minutes later ^3 H-flunitrazepam is given intravenously to the mice and, after a further twenty minutes, the mice are killed. Their forebrain membranes are removed and the radioactivity of these forebrain membranes is measured by scintillation counting. The ED50 value is determined from dose-response curves.

Which IC50 (benzodiazepine receptors [1]) does the source give for `CCc1noc(-c2ncn3c2CN(C)C(=O)c2c(C)cccc2-3)n1` here?
Its IC50 is 0.0448 µM.

And the “in vivo ED50” value (benzodiazepine receptors [2])?
The value was 2.2 mg/kg.

How did the IC50 (benzodiazepine receptors [1]) turn out when `CCc1noc(-c2ncn3c2C2CCN2C(=O)c2c(C)cccc2-3)n1` (stereo not drawn) was run?
Its IC50 is 0.03 µM.

And the “in vivo ED50” value (benzodiazepine receptors [2])?
The value was 0.4 mg/kg.

For `Cc1cccc2c1C(=O)N1CCC1c1c(-c3nc(C4CC4)no3)ncn1-2` (stereo not drawn), which IC50 (benzodiazepine receptors [1]) is on record?
The IC50 was 0.023 µM.

And the “in vivo ED50” value (benzodiazepine receptors [2])?
Its value is 0.2 mg/kg.

With `CCc1nc(-c2ncn3c2CN(C)C(=O)c2c-3cccc2C(F)(F)F)no1` as the molecule, how does the IC50 (benzodiazepine receptors [1]) read?
Its IC50 is 0.0056 µM.

And the “in vivo ED50” value (benzodiazepine receptors [2])?
The value was 0.5 mg/kg.

How did the “in vivo ED50” value (benzodiazepine receptors [2]) turn out when `COc1ccc2c(c1)C(=O)N(C)Cc1c(-c3nc(C)no3)ncn1-2` was run?
The value was 4.0 mg/kg.
